Patent US7713965B2, “7-substituted 3-carboxy-oxadiazino-quinolone derivatives, their preparation and their application as anti-bacterials” (Vetoquinol SA, priority 2008, dated 2010)

Structure (SMILES)	melting point
CC1Oc2c(N3CC[C@@H](Nc4nccs4)C3)ccc3c(=O)c(C(=O)O)cn(c23)N1C (stereo partly shown) (hydrate or solvate)	260 to 263 °C
CN1COc2c(N3CC[C@H](Nc4nccs4)C3)c(F)cc3c(=O)c(C(=O)O)cn1c23 (hydrate or solvate) [Example 18, 8-Fluoro-3-methyl-6-oxo-9-[(S)-3-(thiazol-2-ylamino)-pyrrolidin-1-yl]-2,3dihydro-6H-1-oxa-3,3a-diaza-phenalene-5-carboxylic acid]	275 °C
CN1COc2c(N3CCC(CN(c4cnccn4)c4cnccn4)C3)c(F)cc3c(=O)c(C(=O)O)cn1c23 (stereo not shown) (hydrate or solvate)	213 to 215 °C
CN1COc2c(N3CCC(NC(=O)c4ccco4)CC3)c(F)cc3c(=O)c(C(=O)O)cn1c23 (hydrate or solvate)	293 to 295 °C
CN1COc2c(N3CC(O)C(C)(C)C3)c(F)cc3c(=O)c(C(=O)O)cn1c23 (stereo not shown) (hydrate or solvate)	281 °C (dec.)
CC1Oc2c(N3C[C@H](N)C(C)(C)C3)c(F)cc3c(=O)c(C(=O)O)cn(c23)N1C (stereo partly shown) (hydrate or solvate)	212 to 214 °C
CN1COc2c(N3CC(N)C(c4nccs4)C3)c(F)cc3c(=O)c(C(=O)O)cn1c23 (stereo not shown) (hydrate or solvate)	240 to 245 °C
CO/N=C1\CCN(c2c(F)cc3c(=O)c(C(=O)O)cn4c3c2OCN4C)C1 (hydrate or solvate)	241 to 243 °C
CN1COc2c(N3CC[C@H](NC(=O)C(F)(F)F)C3)ccc3c(=O)c(C(=O)O)cn1c23 (hydrate or solvate)	310 °C (dec.)
CN1COc2c(N3CCC(N4CCCC4)CC3)c(F)cc3c(=O)c(C(=O)O)cn1c23 (hydrate or solvate)	267 to 269 °C
CN1COc2c(N3CCC(Nc4ccccn4)C3)c(F)cc3c(=O)c(C(=O)O)cn1c23 (stereo not shown) (hydrate or solvate) [Example 8]	278 to 280 °C
CN1COc2c(N3C[C@@H](N)C(C)(C)C3)c(F)cc3c(=O)c(C(=O)O)cn1c23 (hydrate or solvate) [Example 34, 9-((S)-4-Amino-3,3-dimethyl-pyrrolidin-1-yl)-8-fluoro-3-methyl-6-oxo-2,3-dihydro-6H-1-oxa-3,3a-diaza-phenalene-5-carboxylic acid]	230 °C (dec.)
CN1COc2c(N3CCC(Nc4cnccn4)C3)c(F)cc3c(=O)c(C(=O)O)cn1c23 (stereo not shown) (hydrate or solvate) [Example 7]	269 °C (dec.)
CN1COc2c(N3CCC(C(N)c4nccs4)C3)c(F)cc3c(=O)c(C(=O)O)cn1c23 (stereo not shown) (hydrate or solvate) [Example 39, 9-[3-(Amino-thiazol-2-yl-methyl)-pyrrolidin-1-yl]-8-fluoro-3-methyl-6-oxo-2,3-dihydro-6H-1-oxa-3,3a-diaza-phenalene-5-carboxylic acid]	233 to 235 °C
CN1COc2c(N3CCC(CNC(=O)c4ccco4)C3)c(F)cc3c(=O)c(C(=O)O)cn1c23 (stereo not shown) (hydrate or solvate)	278 to 280 °C
CN1COc2c(N3CC[C@@H](Nc4nccs4)C3)ccc3c(=O)c(C(=O)O)cn1c23 (hydrate or solvate)	275 °C (dec.)
CN1COc2c(N3CC[C@@H](Nc4nccs4)C3)c(F)cc3c(=O)c(C(=O)O)cn1c23 (hydrate or solvate) [Example 19, 8-Fluoro-3-methyl-6-oxo-9-[(R)-3-(thiazol-2-ylamino)-pyrrolidin-1-yl]-2,3-dihydro-6H-1-oxa-3,3a-diaza-phenalene-5-carboxylic acid]	245 to 250 °C
CN1COc2c(N3CC[C@@H](NC(=O)C(F)(F)F)C3)c(F)cc3c(=O)c(C(=O)O)cn1c23 (hydrate or solvate) [Example 29, 8-Fluoro-3-methyl-6-oxo-9-[(R)-3-(2,2,2-trifluoro-acetylamino)-pyrrolidin-1-yl]-2,3-dihydro-6H-1-oxa-3,3a-diaza-phenalene-5-carboxylic acid]	273 to 275 °C
CN1COc2c(N3CC(N)C(C)(C)C3)c(F)cc3c(=O)c(C(=O)O)cn1c23 (racemic) (hydrate or solvate) [Example 33, 9-((R,S)-4-Amino-3,3-dimethyl-pyrrolidin-1-yl)-8-fluoro-3-methyl-6-oxo-2,3-dihydro-6H-1-oxa-3,3a-diaza-phenalene-5-carboxylic acid]	237 °C (dec.)
CN1COc2c(N3CC[C@H](NC(=O)C(F)(F)F)C3)c(F)cc3c(=O)c(C(=O)O)cn1c23 (hydrate or solvate) [Example 28, 8-Fluoro-3-methyl-6-oxo-9-[(S)-3-(2,2,2-trifluoro-acetylamino)-pyrrolidin-1-yl]-2,3-dihydro-6H-1-oxa-3,3a-diaza-phenalene-5-carboxylic acid]	273 to 275 °C

Now from value to compound:

melting point	Structure (SMILES)
280 °C	CN1COc2c(N3CCC(Nc4nccs4)CC3)c(F)cc3c(=O)c(C(=O)O)cn1c23 (hydrate or solvate)
222 to 224 °C	CN(c1nccs1)[C@@H]1CCN(c2c(F)cc3c(=O)c(C(=O)O)cn4c3c2OCN4C)C1 (hydrate or solvate)
239 °C (dec.)	CN1COc2c(N3CCC(Nc4cnccn4)CC3)c(F)cc3c(=O)c(C(=O)O)cn1c23 (hydrate or solvate)
244 °C (dec.)	Cc1cc(NC2CCN(c3c(F)cc4c(=O)c(C(=O)O)cn5c4c3OCN5C)C2)on1 (stereo not shown) (hydrate or solvate)
250 °C (dec.)	CN1COc2c(N3CCC(c4nnn[nH]4)C3)c(F)cc3c(=O)c(C(=O)O)cn1c23 (stereo not shown) (hydrate or solvate)
245 °C (dec.)	CN1COc2c(N3CC[C@H](Nc4ncc[nH]4)C3)c(F)cc3c(=O)c(C(=O)O)cn1c23 (hydrate or solvate)
261 °C (dec.)	CN1COc2c(N3CCC(NS(C)(=O)=O)C3)c(F)cc3c(=O)c(C(=O)O)cn1c23 (stereo not shown) (hydrate or solvate)
225 °C (dec.)	CN1COc2c(N3CC[C@@H](Nc4ncc[nH]4)C3)c(F)cc3c(=O)c(C(=O)O)cn1c23 (hydrate or solvate)
265 to 267 °C	CN1COc2c(N3CCC(NC4=NCCS4)C3)c(F)cc3c(=O)c(C(=O)O)cn1c23 (stereo not shown) (hydrate or solvate)
285 °C (dec.)	CN1COc2c(N3CCC(Nc4ncns4)C3)c(F)cc3c(=O)c(C(=O)O)cn1c23 (stereo not shown) (hydrate or solvate)
266 °C (dec.)	Cc1nc(NC2CCN(c3c(F)cc4c(=O)c(C(=O)O)cn5c4c3OCN5C)C2)sc1C (stereo not shown) (hydrate or solvate)
292 °C (dec.)	CN1COc2c(N3CCC(NC(=O)CC(F)(F)F)C3)c(F)cc3c(=O)c(C(=O)O)cn1c23 (stereo not shown) (hydrate or solvate)
240 °C	Cc1nnc(NCC2CCN(c3c(F)cc4c(=O)c(C(=O)O)cn5c4c3OCN5C)C2)o1 (stereo not shown) (hydrate or solvate)
235 °C (dec.)	CN1COc2c(N3CC[C@H](n4ccnn4)C3)c(F)cc3c(=O)c(C(=O)O)cn1c23 (hydrate or solvate)
306 to 308 °C	CN1COc2c(N3CCC(NC(=O)c4ccco4)C3)c(F)cc3c(=O)c(C(=O)O)cn1c23 (stereo not shown) (hydrate or solvate)
255 °C (dec.)	CN1COc2c(N3CC[C@@H](Nc4cnccn4)C3)c(F)cc3c(=O)c(C(=O)O)cn1c23 (hydrate or solvate)
264 °C (dec.)	CN1COc2c(N3CCC(Nc4ccccn4)CC3)c(F)cc3c(=O)c(C(=O)O)cn1c23 (hydrate or solvate)
